What was measured:
Human recombinant IDO1 = Human recombinant IDO1 (Homo sapiens (Human), UniProt P14902); test: IDO1 enzymatic assay (UV absorption at 321 nm); type: biochemical; settings: human recombinant IDO1, 80 min incubation, room temperature; read-out: hIDO1 IC50
Method: The detailed experimental method is as follow:
The compounds described in this disclosure were dissolved in 10% DMSO to predefined concentration. All of the reactions were conducted at room temperature in this disclosure. Human recombinant IDO1 (BPS Bioscience) was added so that its concentration was 200 nm in the reaction buffer solution (200 μL). […] 10 μL test compound solution was added into the above reaction solution (200 μL), so that the final concentration of DMSO in all reaction wells was 0.5%. % concentration was volume %. After 80 min incubation of the reaction solution, the UV absorbance was measured using TECAN Infinite M1000 plate reader. For the negative control (blank), 10 μl of the assay buffer was added instead of the IDO1
All reagents (excluding human recombinant IDO1) were purchased from Sigma Aldrich, MO, USA.
(§1) The percent activity in the presence of each compound was calculated according to the following equation: % activity=[(A−Ab)/(At−Ab)]×100, where A=the absorption signal in the presence of the compound, Ab=the absorption signal of blank, At=the absorption signal in the absence of the compound. […] The IC50 was calculated using non-linear regression in Graph Pad Prism® 4.

HeLa cell IDO1 = HeLa cell IDO1 (Homo sapiens (Human), UniProt P14902); test: HeLa cell based IDO1 inhibition assay (kynurenine readout, IFN-γ induced); settings: HeLa cells
Chain of HeLa cell IDO1 (P14902 whole entry): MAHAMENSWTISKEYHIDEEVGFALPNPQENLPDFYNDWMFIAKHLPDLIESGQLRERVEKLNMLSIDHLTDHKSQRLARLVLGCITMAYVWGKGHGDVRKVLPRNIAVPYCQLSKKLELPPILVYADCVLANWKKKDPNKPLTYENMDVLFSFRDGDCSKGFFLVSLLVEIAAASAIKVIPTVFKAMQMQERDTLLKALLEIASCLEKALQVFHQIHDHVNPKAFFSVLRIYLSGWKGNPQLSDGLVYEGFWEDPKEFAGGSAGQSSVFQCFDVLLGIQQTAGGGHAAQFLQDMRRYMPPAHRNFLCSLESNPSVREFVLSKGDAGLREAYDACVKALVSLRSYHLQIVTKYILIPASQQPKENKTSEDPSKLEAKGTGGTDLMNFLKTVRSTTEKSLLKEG
Method: HeLa cell line was purchased from ATCC, cultured in MEM/EBSS medium supplemented with 10% FBS, penn-step (100,000 U/L), non-essential amino acid (0.1 Mm), sodium pyruvate (1.0 Mm). Cells were cultured at 37° C., 95% humidity and 5% CO2. […] The detailed experimental method is as follow:
25,000 HeLa cells were placed on 96-well plates. Each well contained 100 μl culture medium, subsequently IFN-γ and test compounds at specific concentrations (concentration range between 10 μM and 1 Nm, so that the final volume of culture medium was 200 μL) were added and IFN-γ was used to induce IDO1 expression. After incubation, 140 μL supernatant was transferred to 96-well plates. After adding 6.1 N TCA (10 μL), the plates were continuously incubated at 50° C. for 30 min, to hydrolyze N-formylkynurenine produced by IDO to kynurenine. The reaction solution was then centrifuged at 2500 rpm for 10 min to remove precipitate. 100 μL/well supernatant was then transferred to another 96-well plate. 100 μL of 2% (w/v) 4-N,N-dimethyl aminobenzaldehyde acetic acid solution was added and incubated at room temperature for 10 min. The yellow color derived from kynurenine was recorded by measuring absorbance at 480 nm using a microplate reader (TECAN Infinite M1000 Pro).

recombinant TDO2 = recombinant TDO2 (Homo sapiens (Human), UniProt P48775); test: TDO2 enzymatic assay (UV absorption at 321 nm); type: biochemical; settings: 50 nM TDO2, 200 μM tryptophan, 75 min
Chain of recombinant TDO2 (P48775 whole entry, species assumed): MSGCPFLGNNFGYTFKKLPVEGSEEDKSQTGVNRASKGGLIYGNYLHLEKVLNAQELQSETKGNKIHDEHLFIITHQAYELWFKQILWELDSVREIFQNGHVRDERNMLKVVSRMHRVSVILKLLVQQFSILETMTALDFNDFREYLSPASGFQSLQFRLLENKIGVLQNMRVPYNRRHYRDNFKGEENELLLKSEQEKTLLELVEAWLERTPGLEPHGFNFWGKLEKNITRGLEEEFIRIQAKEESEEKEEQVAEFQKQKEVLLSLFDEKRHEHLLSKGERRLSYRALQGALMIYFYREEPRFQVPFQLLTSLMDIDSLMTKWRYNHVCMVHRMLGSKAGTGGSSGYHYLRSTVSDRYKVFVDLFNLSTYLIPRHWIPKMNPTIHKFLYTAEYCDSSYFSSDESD
Method: The TDO2 enzymatic assay was performed by UV absorption using a recombinant TDO2 and L-Tryptophan substrate. The UV absorption signal at 321 nm is correlated with the amount of N-formylkynurenine reaction product of TDO2. The compounds were diluted in 10% DMSO and 5 μL of the dilution was added to a 100 μL reaction so that the final concentration of DMSO is 0.5% in all of reactions. All of the reactions were conducted at room temperature. The 100 μL reaction mixture in TDO2 Assay Buffer contains 50 nM TDO2, the indicated amount of the inhibitor, 200 μM tryptophan, and the coupled reaction components. The reaction mixture incubated for 75 min prior to reading the UV absorption signal. For the negative control (blank), 5 μl of the assay buffer was added instead of the TDO2.
as §1, with “Absorption signals were measured using a Tecan Infinite M1000 plate reader. Binding experiments were performed in duplicate at each concentration. The percent” for “The percent”

HeLa cell based IDO1 = HeLa cell based IDO1 (Homo sapiens (Human), UniProt P14902); test: Three-point IDO1 cellular assay (HeLa, 10, 100 and 1000 nM); settings: HeLa cells, 100 ng/mL IFN-γ, 18 hours; for inhibition values of %: at 1000 nM
Chain of HeLa cell based IDO1 (P14902 whole entry): as the sequence (P14902 whole entry) above
Method: To perform the 3-point HeLa cell based IDO1 assay, HeLa cells were seeded at 25,000 cells per well into 96-well microplate in 100 μL of growth medium. Cells were incubated at 37° C. and 5% CO2 overnight. The next day 100 μL per well of diluted inhibitor in growth medium at 10, 100 and 1000 nM, respectively, was added at a final concentration of 100 ng/ML human IFN-γ. Cells were incubated at 37° C. in a CO2 incubator for 18 hours. […] The plate was incubated at 50° C. for 30 min to hydrolyze N-formylkynurenine produced by IDO1 to kynurenine. The plate was then centrifuged at 2500 rpm for 10 min to remove sediments. 100 μl of supernatant per well was transferred to another 96-well plate and mixed with 100 μL of 2% (w/v) 4-(Dimethylamino) benzaldehyde in acetic acid. The plate was incubated at room temperature for 10 minutes, the yellow color derived from kynurenine was recorded by measuring absorbance at 480 nm using a microplate reader (TECAN Infinite M1000 Pro). Cell based assays were performed in triplicate at each concentration. The absorbance data were analyzed using the computer software, Graphpad Prism. In the absence of the compound and presence of 100 ng/ML IFN-γ, the absorbance (At) in each data set was defined as 100%. The absorbance of medium blank (Ab) in each data set was defined as 0%. The percent absorbance in the presence of each compound was calculated according to the following equation: % Absorbance=(A−Ab)/(At−Ab), where A=the absorbance in the presence of the compound and IFN-γ, Ab=the absorbance of medium blank, and At=the absorbance in the absence of the compounds and presence of IFN-γ. The values of % absorbance versus the compound concentrations were then determined.

Chain of Human recombinant IDO1 (P14902 whole entry): as above

Row | SMILES | IC50 (Human recombinant IDO1) [nM] | IC50 (HeLa cell IDO1) [nM] | IC50 (recombinant TDO2) [nM] | inhibition values of % (HeLa cell based IDO1) | inhibition at 0.1 µM (HeLa cell based IDO1; at 100 nM) [%]
1 | OC(CC1c2c(F)cccc2-c2cncn21)C12CC3CC(CC(C3)C1)C2 (stereo not shown) [Compound 25] | < 100 | 100 to 500 |  |  | 
2 | O=C(CC1CCCCC1)NC1C2CC3CC1CC(C(O)CC1c4c(F)cccc4-c4cncn41)(C3)C2 (stereo not shown) [Compound 49] | < 100 | < 100 |  |  | 
3 | CS(=O)(=O)NC1C2CC3CC1CC(C(O)CC1c4c(F)cccc4-c4cncn41)(C3)C2 (stereo not shown) [Compound 46] | < 100 | < 100 |  |  | 
4 | O=C(NC1C2CC3CC1CC(C(O)CC1c4ccccc4-c4cncn41)(C3)C2)c1ccccc1 (single isomer, unassigned) [Compound 52B] | 100 to 500 | < 100 |  |  | 
5 | O=C(NC1C2CC3CC1CC(C(O)CC1c4ccccc4-c4cncn41)(C3)C2)c1ccccc1 (single isomer, unassigned) [Compound 52A] | < 100 | < 100 |  |  | 
6 | OC1C2CC3CC1CC([C@H](O)CC1c4c(F)cccc4-c4cncn41)(C3)C2 (stereo partly shown) [Compound 23A-1] | < 100 | 100 to 500 |  |  | 
7 | O=C(C[C@@H]1c2ccccc2-c2cncn21)C12CC3CC(CC(C3)C1)C2 (single isomer, unassigned) [Compound 1-3] | < 100 | < 100 |  |  | 
8 | OCCOC1C2CC3CC1CC(C(O)CC1c4c(F)cccc4-c4cncn41)(C3)C2 (stereo not shown) [Compound 61A] | < 100 | < 100 |  |  | 
9 | O=C(C[C@H]1c2ccccc2-c2cncn21)C12CC3CC(CC(C3)C1)C2 (single isomer, unassigned) [Compound 1-2] | < 100 | 100 to 500 |  |  | 
10 | CC1(O)C2CC3CC1CC(C(O)CC1c4ccccc4-c4cncn41)(C3)C2 (stereo not shown) [Compound 11A-2] | < 100 |  | < 500 |  | 
11 | OC(CC1c2c(F)cccc2-c2cncn21)C12CC3CC(CC(C3)C1)C2 (stereo not shown) [Compound 21] | < 100 | < 100 |  |  | 
12 | CC1(O)C2CC3CC1CC([C@H](O)CC1c4ccccc4-c4cncn41)(C3)C2 (stereo partly shown) [Compound 14A-4] | < 100 | < 100 |  |  | 
13 | OC(CC1c2ccccc2-c2cncn21)C12CC3CC(C1)C(c1ccccc1)C(C3)C2 (stereo not shown) [Compound 62A] | < 100 |  |  | greater than 50% | 
14 | O=C(Nc1ccccc1)NC1C2CC3CC1CC(C(O)CC1c4c(F)cccc4-c4cncn41)(C3)C2 (stereo not shown) [Compound 55] | < 100 | < 100 |  |  | 
15 | Nc1nonc1C(=NO)Nc1ccc(F)c(Cl)c1 [Ref. B, 4-amino-N-(3-chloro-4-fluorophenyl)-N′-hydroxy-1,2,5-oxadiazole-3-carboximidamide, reference compound] |  |  | 10000 to 100000 |  | 
16 | OC1C2CC3CC1CC([C@H](O)CC1c4c(F)cccc4-c4cncn41)(C3)C2 (stereo partly shown) [Compound 26A] | < 100 | < 100 |  |  | 
17 | OC1C2CC3CC1CC([C@H](O)CC1c4c(F)cccc4-c4cncn41)(C3)C2 (stereo partly shown) [Compound 26A-3] | < 100 | < 100 | < 500 |  | 

Row | SMILES | IC50 (Human recombinant IDO1) [nM] | IC50 (HeLa cell IDO1) [nM] | IC50 (recombinant TDO2) [nM] | inhibition values of % (HeLa cell based IDO1) | inhibition at 0.1 µM (HeLa cell based IDO1; at 100 nM) [%]
18 | OC(CC1c2c(F)cccc2-c2cncn21)C12CC3CC(CC(O)(C3)C1)C2 (stereo not shown) [Compound 22] | < 100 | 100 to 500 |  |  | 
19 | O=S(=O)(Cc1ccccc1)NC1C2CC3CC1CC([C@H](O)CC1c4c(F)cccc4-c4cncn41)(C3)C2 (stereo partly shown) [Compound 45A-1] | < 100 | < 100 | < 500 |  | 
20 | O=C(Cc1ccccc1)NC1C2CC3CC1CC(C(O)CC1c4ccccc4-c4cncn41)(C3)C2 (single isomer, unassigned) [Compound 53A] | < 100 |  |  |  | > 50
21 | OC(CC1c2ccccc2-c2cncn21)C12CC3CC(CC(O)(C3)C1)C2 (stereo not shown) [Compound 9] | < 100 | 100 to 500 |  |  | 
22 | OC(CC1c2ccccc2-c2cncn21)C12CC3CC(CC(C3)C1)C2 (stereo not shown) [Compound 1] | < 100 | 100 to 500 |  |  | 
23 | OC(CC1c2ccccc2-c2cncn21)C12CC3CC(CC(C3)C1)C2 (stereo not shown) [Compound 13] | < 100 | 100 to 500 |  |  | 
24 | OC1C2CC3CC1CC(C(O)CC1c4ccccc4-c4cncn41)(C3)C2 (stereo not shown) [Compound 10A-3] | 1000 to 10000 |  |  |  | 
25 | OC(CC1c2ncccc2-c2cncn21)C1CCCCC1 (stereo not shown) [compound 3] | 100 to 500 |  |  |  | 
26 | O=S(=O)(Cc1ccccc1)NC1C2CC3CC1CC(C(O)CC1c4c(F)cccc4-c4cncn41)(C3)C2 (stereo not shown) [Compound 45A] | < 100 | < 100 |  |  | 
27 | OC(CC1c2cccc(F)c2-c2cncn21)C12CC3CC(CC(C3)C1)C2 (stereo not shown) [compound 8] | 100 to 500 |  |  |  | 
28 | OC1C2CC3CC1CC(C(O)CC1c4ccccc4-c4cncn41)(C3)C2 (stereo not shown) [Compound 10A] | < 100 | < 100 |  |  | 
29 | CC(C)(O)CCOC1C2CC3CC1CC(C(O)CC1c4c(F)cccc4-c4cncn41)(C3)C2 (stereo not shown) [Compound 58] | 100 to 500 | < 100 |  |  | 
30 | OC1C2CC3CC1CC([C@H](O)CC1c4c(F)cccc4-c4cncn41)(C3)C2 (stereo partly shown) [Compound 23A] | < 100 | < 100 |  |  | 
31 | OC(CC1c2ncccc2-c2cncn21)C12CC3CC(CC(C3)C1)C2 (stereo not shown) [compound 4] | 100 to 500 | 500 to 1000 |  |  | 
32 | OC1C2CC3CC1CC([C@@H](O)CC1c4c(F)cccc4-c4cncn41)(C3)C2 (stereo partly shown) [Compound 23B] | 100 to 500 |  |  | greater than 50% | 
33 | OC1C2CC3CC1CC(C(O)CC1c4ccccc4-c4cncn41)(C3)C2 (stereo not shown) [Compound 14A] | < 100 | < 100 |  |  | 
34 | O=S(=O)(Cc1ccccc1)NC1C2CC3CC1CC([C@@H](O)CC1c4c(F)cccc4-c4cncn41)(C3)C2 (stereo partly shown) [Compound 45A-4] | 100 to 500 | 100 to 500 | 1000 to 10000 |  | 

Reference: US10202388B2, “Fused-ring compounds, pharmaceutical composition and uses thereof” (SHANGHAI DE NOVO PHARMATECH CO., LTD., priority 2015, dated 2019)
